For series [1], the target named is recombinant human GST-Syk (Homo sapiens (Human), UniProt P43405). Briefly: Homogeneous Time-Resolved Fluorescence (HTRF) assay for the recombinant human Syk enzyme. The series is classed as biochemical. Conditions: recombinant human GST-Syk 5 pM, ATP 25 μM, read-out: rhSyk IC50. The essentials:
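HTRF read-out of phosphorylation of a biotinylated Syk-site peptide (250 nM final) by a GST-tagged human Syk fusion. Reaction initiated with ATP at 25 μM final plus 5 mM magnesium final. Compound potency taken from inhibition of human Syk activity.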
For orientation: TR-FRET usually uses a lanthanide donor and a delayed reading to cut background.

Series [2] is described as follows: Hydrolysis assay: hydrolysis of prodrug to parent species in human liver S9. The series is classed as in vitro ADME. Conditions: human liver S9 1 mg protein/mL, prodrug 10 μM, 37° C., pH 7.4, 1 mM NADPH; for half-life at 10 μM: read-out: Half-life (min) of the conversion of the prodrug to the carboxylic acid. On the procedure:
Hydrolysis Assay: Analysis of Hydrolysis of Prodrug to Parent Species
The stability of 8 different prodrugs was investigated in human liver S9 microsomes. Incubations of prodrugs (10 μM) with liver S9 (1 mg protein/mL) were carried out at 37° C. in a phosphate buffer, pH 7.4, containing 1 mM NADPH. Control incubations contained BSA (1.1 mg/mL) instead of liver S9 microsomes. Aliquots were removed at 0, 5, 15, 30, 60 and 120 min, treated with 4 volumes of acetonitrile containing 2% formic acid and an internal standard, and centrifuged. The supernatants were analyzed by LC-MS/MS for prodrug disappearance and appearance of active drug. The half-life of the prodrug was calculated from the % prodrug remaining at different time points calculated from on the peak area ratio relative to t=0. The amount of active drug generated at the different time points was determined using a standard curve.

The target in series [3] is T1, Syk kinase (Homo sapiens (Human), UniProt P43405). The conditions noted are these: dosed intranasally, allergic rhinitis; cited from earlier work.
Series [4] addresses T1, Syk kinase. Conditions: phase II clinical trial, allergic rhinitis; cited from earlier work.

By IC50 is commonly meant the concentration at which inhibition is half-maximal. In general, half-life refers to how long it takes for the measured level to halve. Regarding `CCOC(=O)[C@H]1CC[C@H](C(C)(O)c2ccc(-c3cc(C)cc(Nc4cc(C(F)F)ccn4)n3)cn2)CC1` (single isomer, unassigned) [Example 17, Ethyl trans-4-[(1R or 1S)-1-(6-{[4-(difluoromethyl)pyridin-2-yl]amino}-4-methyl-2,3′-bipyridin-6′-yl)-1-hydroxyethyl]cyclohexanecarboxylate], the IC50 in series [1] is 18 nM. Besides, the half-life at 10 μM in series [2] amounted to 5.6 min.
In the case of `CCCCCCCOC(=O)[C@H]1CC[C@H](C(C)(O)c2ccc(-c3cc(C)cc(Nc4cc(C(F)F)ccn4)n3)cn2)CC1` (single isomer, unassigned) [Example 19-10, heptyl trans-4-[(1R or 1S)-1-(6-{[4-(difluoromethyl)pyridin-2-yl]amino}-4-methyl-2,3′-bipyridin-6′-yl)-1-hydroxyethyl] cyclohexanecarboxylate], in series [1], the IC50 is 670 nM. The “Half-life (min) of the conversion of the prodrug to the carboxylic acid” value (from here on “Half-life (min)”) in series [2] was 40 min.
On to `COCCOC(=O)[C@H]1CC[C@H](C(C)(O)c2ccc(-c3cc(C)cc(Nc4cc(C(F)F)ccn4)n3)cn2)CC1` (single isomer, unassigned) [Example 19-15, 2-methoxyethyl trans-4-[(1R or 1S)-1-(6-{[4-(difluoromethyl)pyridin-2-yl]amino}-4-methyl-2,3′-bipyridin-6′-yl)-1-hydroxyethyl] cyclohexanecarboxylate], for which the IC50 in series [1] came to 6.4 nM. Further, the “Half-life (min)” value in series [2] was 3.9 min.
The corresponding values for `Cc1cc(Nc2cc(C(F)F)ccn2)nc(-c2ccc(C(C)(O)[C@H]3CC[C@H](C(=O)OCC(=O)N(C)C)CC3)nc2)c1` (single isomer, unassigned) [Example 19-18, 2-(dimethylamino)-2-oxoethyl trans-4-[(1R or 1S)-1-(6-{[4-(difluoromethyl)pyridin-2-yl]amino}-4-methyl-2,3′-bipyridin-6′-yl)-1-hydroxyethyl] cyclohexanecarboxylate] are 1.2 nM and 6.2 min.
Take `Cc1cc(Nc2cc(C(F)F)ccn2)nc(-c2ccc(C(C)(O)[C@H]3CC[C@H](C(=O)OCCN4CCOCC4)CC3)nc2)c1` (single isomer, unassigned) [Example 19-19, 2-{morpholin-4-yl)ethyl trans-4-[(1R or 1S)-1-(6-{[4-(difluoromethyl)pyridin-2-yl]amino}-4-methyl-2,3′-bipyridin-6′-yl)-1-hydroxyethyl] cyclohexanecarboxylate]: in series [1], the IC50 was determined as 8.7 nM. In addition, in series [2], the “Half-life (min)” value was found to be 15 min.
On to `CCOC(=O)OCOC(=O)[C@H]1CC[C@H](C(C)(O)c2ccc(-c3cc(C)cc(Nc4cc(C(F)F)ccn4)n3)cn2)CC1` (single isomer, unassigned) [Example 20, [(Ethoxycarbonyl)oxy]methyl trans-4-[(1R or 1S)-1-(6-{[4-(difluoromethyl)pyridin-2-yl]amino}-4-methyl-2,3′-bipyridin-6′-yl)-1-hydroxyethyl]cyclohexanecarboxylate], for which the IC50 in series [1] was determined as 14 nM. In addition, the half-life at 10 μM in series [2] was determined as 3 min.
On to `CC(=O)OCOC(=O)[C@H]1CC[C@H](C(C)(O)c2ccc(-c3cc(C)cc(Nc4cc(C(F)F)ccn4)n3)cn2)CC1` (single isomer, unassigned) [Example 21, (Acetyloxy)methyl trans-4-[(1R or 1S)-1-(6-{[4-(difluoromethyl)pyridin-2-yl]amino}-4-methyl-2,3′-bipyridin-6′-yl)-1-hydroxyethyl]cyclohexanecarboxylate], for which the IC50 in series [1] was 11 nM. For the same compound, the half-life at 10 μM in series [2] came out at 3.3 min.
On the same counts, the results for `COC(=O)[C@H]1CC[C@H](C(C)(O)c2ccc(-c3cc(C)cc(Nc4cc(C(F)F)ccn4)n3)cn2)CC1` (single isomer, unassigned) [Example 22, Methyl trans-4-[(1R or 1S)-1-(6-{[4-(difluoromethyl)pyridin-2-yl]amino}-4-methyl-2,3′-bipyridin-6′-yl)-1-hydroxyethyl]cyclohexanecarboxylate] are 8 nM and 4.6 min.
Turning to `Oc1cccc(Nc2ncc(F)c(Nc3cccc(O)c3)n2)c1` [Example R112], in series [3], the PGD2 change entry was “statistically significant decrease in PGD2” and the clinical safety entry was “safe across a range of indicators”. Further, in series [4], the efficacy versus placebo result was “lack of efficacy versus placebo”.

The values above are taken from patent US9145391B2, “Bipyridylaminopyridines as Syk inhibitors” (Merck Sharp & Dohme Corp., priority 2011, dated 2015).
